In patent publication US7342018B2, “Urokinase inhibitors and uses thereof” (Wilex AG, priority 1998, dated 2008):

Columns and labels:
Urokinase (sc-urokinase) = target: T1, Urokinase (sc-urokinase) (Homo sapiens, UniProt P00749); experiment: In vitro inhibition of urokinase (chromogenic substrate, Dixon Ki); type: biochemical; details: in vitro inhibition of urokinase, 25° C, pH 8.0, 5% ethanol; read-out: Ki
T1 construct: purchased Ribosepharm GmbH, Haan, Germany
Protocol: To determine the inhibitory activity, 200 μl of Tris buffer (0.05 mol/l, containing the inhibitor, 0.154 mol/l NaCl, 5% ethanol pH 8.0), 25 μl of substrate (Pefachrome UK or Bz-βAla-Gly-Arg-pNA in H2O; Pentapharm Ltd., Basle, Switzerland) and 50 μl of sc-urokinase (Ribosepharm GmbH, Haan, Germany) were incubated at 25° C. After 3 min the reaction was stopped by adding 25 μl of acetic acid (50%), and the absorption at 405 nm was determined by means of a Microplate Reader (MR 5000, Dynatech, Denkendorf, Germany). Ki values were determined according to Dixon by linear regression using a computer program. The Ki values are the mean values of at least three determinations with a standard deviation of less than 25%.

[1] = tested on: BN-472 rat mammary carcinoma; experiment: BN-472 rat mammary carcinoma model, single agent and combination with cytotoxics (Example 11); details: for anti-tumor effects (tumor size development, final tumor weight): once weekly administration i.v.
Protocol: WX-UK1 was dissolved in 5% w/v of D-mannitol to the appropriate dosage and administered once daily or twice weekly either subcutaneously (s.c.) or intraperitonally (i.p.).
Epirubicin (0.75-3 mg/kg body wight), paclitaxel (5-7.5 mg/kg) or 5-FU (20 and 40 mg/kg) was given once weekly by i.v. injection into the external jugular vein.
Control rats received the vehicle 5% w/v of D-mannitol once daily s.c.
A donor rat bearing a tumor of 20×20 mm was sacrificed, the tumor harvested ant the cortex part was sliced into cubes of approximately 10 mm^3 and the transplated orthotopically under the mammary fad pads of female Brown Norway rats.
Treatment was started three or six days (5-FU experiment) after tumor inoculation. Each treatment group consisted of 15 to 21 rats.
Tumor load is plotted as the average±standard error of the mean (SEM).
Tumor, organ weights as well as lung foci counts are presented in Box-Whisker graphs. […] Whiskers extend to the extreme lower 5th and upper 95th percentiles of values. Dots represent individual data.
P-values represent significance levels of pairwise comparisons of treatment groups versus vehicle control. For combination therapy experiments the P-values for the comparison of a cytostatic mono-therapy versus the combination therapy is given.

Row | Ki (Urokinase (sc-urokinase)) [nM] | SMILES | anti-tumor effects (tumor size development, final tumor weight) [1] | thymus atrophy ([1]; rat, in vivo)
1 | 960 | CCOC(=O)N1CCN(C(=O)C(Cc2cccc(C(=N)N)c2)NS(=O)(=O)c2c(C(C)C)cc(C(C)C)cc2C(C)C)CC1.Cl (centres unmarked) [D,L, Nα-(2,4,6-triisopropylphenylsulfonyl)-3-amidino-(D,L)-phenylalanine 4-ethoxycarbonylpiperazide hydrochloride] |  | 
2 |  | O=c1[nH]cc(F)c(=O)[nH]1 [Example 5-FU, 5-fluorouracil, reference compound] | Dose-dependent anti-tumor effects | 
3 |  | COc1cccc2c1C(=O)c1c(O)c3c(c(O)c1C2=O)C[C@@](O)(C(=O)CO)C[C@@H]3O[C@H]1C[C@H](N)[C@@H](O)[C@H](C)O1 [epirubicin, reference compound] | Dose-dependent anti-tumor effects | thymus atrophy
4 |  | CC(=O)O[C@H]1C(=O)[C@@]2(C)[C@H]([C@H](OC(=O)c3ccccc3)[C@]3(O)C[C@H](OC(=O)[C@H](O)[C@@H](NC(=O)c4ccccc4)c4ccccc4)C(C)=C1C3(C)C)[C@]1(OC(C)=O)CO[C@@H]1C[C@@H]2O [paclitaxel, reference compound] | Dose-dependent anti-tumor effects | 
